Values quoted from earlier work in patent US5714511A, “Selective prevention of organ injury in sepsis and shock using selection release of nitric oxide in vulnerable organs” (The United States of America as represented by the …, priority 1995, dated 1998).

Experiments:
[1] = test system: hemorrhagic shock in rats

Compound: CC(=O)N[C@H](C(=O)O)C(C)(C)SN=O [SNAP, S-nitroso-N-acetyl-penicillamine]
- inhibition of DNA synthesis (DNA synthesis): effective at inhibiting DNA synthesis
- protective effect in hemorrhagic shock [1]: significant protective effects of SNAP in hemorrhagic shock in rats

Compound: Nitric oxide
- solubility in aqueous media: limited solubility in aqueous media
